Where two headings read alike, the source gives them in different places.
How the values were obtained:
[1] = system: ZIKV-RLuc (Cambodian strain FSS13025); experiment: microbe, parasite or virus in culture; format: cell-based, Zika virus
[2] = system: wild-type ZIKV (Ugandan MR766 strain) in Vero cells; experiment: ZIKV cytopathic effect (CPE) inhibition qHTS assay, CellTiter-Glo readout; format: cell-based, Zika virus
[3] = Zika virus, Vero, read-out: Log AC50 (M) (converted)

Row | Compound | CC-v2 (curve class classification v2 of the dose response curve) [1] | Efficacy (difference between neutral response and maximum compound response) [1] | Max Resp (difference between neutral response and compound response for highest compound concentration) [1] | CC-v2 (curve class classification of the dose response curve) [2] | Efficacy [2] | AC50 ([2]; Zika virus, Vero) [M] | AC50 [2, 3] [M] | also measured
1 | CC(C)COCC(CN(Cc1ccccc1)c1ccccc1)N1CCCC1 (stereo not drawn) [NCGC00015155-11] | -2.2 | -53.208 | -86.237 | – | – | – | – | –
2 | COc1cc2nc(N3CCN(C(=O)c4ccco4)CC3)nc(N)c2cc1OC [NCGC00016740-18] | – | – | -5.44 | – | – | – | – | –
3 | CN1CCN(CCCN2c3ccccc3Sc3ccc(S(=O)(=O)N(C)C)cc32)CC1.CS(=O)(=O)O.CS(=O)(=O)O [NCGC00017040-01] | 4 | -28.971 | -22.476 | – | – | – | – | –
4 | CCN(CC)Cc1cc(Nc2ccnc3cc(Cl)ccc23)ccc1O [NCGC00017063-03] | 4 | 28.757 | 20.219 | – | – | – | – | –
5 | CCOc1cc(N)c(Cl)cc1C(=O)NCC1CN(Cc2ccc(F)cc2)CCO1 (stereo not drawn) [NCGC00160527-05] | 4 | -16.441 | -14.706 | – | – | – | – | –
6 | CN1CCC(=C2c3ccccc3CCc3sccc32)CC1 [NCGC00163169-02] | 4 | 14.14 | -9.44 | – | – | – | – | –
7 | Cc1cccc(C)c1OCC(=O)N[C@@H](Cc1ccccc1)[C@@H](O)C[C@H](Cc1ccccc1)NC(=O)[C@H](C(C)C)N1CCCNC1=O [NCGC00164576-04] | 4 | – | -20.627 | – | – | – | – | –
8 | CCCCCCCCCCC[C@@H](C[C@@H]1OC(=O)[C@H]1CCCCCC)OC(=O)C(CC(C)C)NC=O (stereo partly drawn) [NCGC00165856-03] | -3 | 0 | -33.733 | – | – | – | – | –
9 | CC[C@@]1([C@@H]2O[C@@H]([C@H]3O[C@@](O)(CO)[C@H](C)C[C@@H]3C)C[C@@H]2C)CC[C@H]([C@]2(C)CC[C@]3(C[C@H](O)[C@@H](C)[C@@H]([C@@H](C)[C@@H](OC)[C@H](C)C(=O)O)O3)O2)O1 [NCGC00179454-04] | 4 | 29.905 | -20.473 | – | – | – | – | –
10 | CC1(C)C=Cc2c(ccc(C(=O)/C=C/c3ccccc3)c2O)O1 [NCGC00187466-03] | 4 | – | -35.49 | – | – | – | – | –
11 | CC[C@@H]1C(=O)N(C)c2cnc(Nc3ccc(C(=O)NC4CCC(N5CCN(CC6CC6)CC5)CC4)cc3OC)nc2N1C(C)C (stereo partly drawn) [NCGC00263087-01] | 4 | 12.227 | 10.387 | – | – | – | – | –
12 | CC(C)(N)C(=O)N[C@H](COCc1ccccc1)C(=O)N1CCC2(CC1)CN([S+](C)(=O)[O-])c1ccccc12 [NCGC00263115-01] | 4 | -25.4 | -0.591 | – | – | – | – | –
13 | C=C(C)[C@@H]1CC=C(COC(=O)NC(=O)c2ncn3c(=O)n(C)nnc23)CC1 [NCGC00386754-01] | – | – | – | -3 | -41.908 | 6.51e-05 | 6.51e-05 | –
14 | Cc1cc(N2CCN(C(=O)Oc3ccc(-c4ccccc4)cn3)CC2)c2ccccc2n1 [NCGC00386928-01] | – | – | – | -3 | -62.282 | – | – | –
15 | Cc1cc(C(=O)Nc2cc(Nc3ccc4c(/C=C/c5ccccn5)[nH]nc4c3)ccc2F)n(C)n1 [NCGC00387023-01] | – | – | – | – | -55.32 | 3.66e-05 | 3.66e-05 | –
16 | CC1(C)CC=C(C#Cc2ccccc2)c2cc(/C=C/c3ccc(C(=O)O)cc3)ccc21 [NCGC00387103-01] | – | – | – | -2.2 | -97.274 | 5.17e-05 | 5.17e-05 | –
17 | CCOC(=O)C1=C(N)Oc2ccc(Cl)cc2C1C(C#N)C(=O)OCC (stereo not drawn) [NCGC00387181-02] | – | – | – | -2.2 | -45.481 | 3.66e-05 | 3.66e-05 | –
18 | Cc1cc(C(=O)Nc2cccc(C(=O)Nc3cccc(C(F)(F)F)c3)c2)on1 [NCGC00387256-02] | – | – | – | – | -18.226 | 7.31e-05 | 7.31e-05 | –
19 | Cc1cc2c(F)c(Oc3ncnn4cc(OCC(C)OC(=O)C(C)N)c(C)c34)ccc2[nH]1 (stereo not drawn) [NCGC00389340-01] | – | – | – | – | -57.426 | – | – | Curve class [2]: -3; Emax ([2]; Zika virus, Vero, read-out: Max response): -49.7%
20 | Cc1cc(OCCC[S+](C)(=O)[O-])cc(C)c1-c1cccc(COc2ccc3c(c2)OCC3CC(=O)O)c1 (stereo not drawn) [NCGC00389617-01] | – | – | – | -3 | -41.849 | 2.31e-05 | 2.31e-05 | –
21 | Cc1cc2c(F)c(Oc3ncnn4cc(OCC(C)O)c(C)c34)ccc2[nH]1 (stereo not drawn) [NCGC00389770-01] | – | – | – | – | -29.933 | 6.51e-05 | 6.51e-05 | –
22 | COc1cc(N(C)CCN(C)C)c(N)cc1Nc1nccc(-c2cn(C)c3ccccc23)n1 [NCGC00390638-01] | – | – | – | -3 | -48.353 | 6.51e-05 | 6.51e-05 | –
23 | CCC(=C(c1ccc(OCCN2CCCC2)cc1)c1ccc(OCCN2CCCC2)cc1)c1ccccc1 [NCGC00408918-01] | – | – | – | -3 | -39.621 | 5.8e-05 | 5.8e-05 | –
24 | C=CC(=O)N1CCCN(c2cc(NCCC(=O)O)nc(-c3ccccn3)n2)CC1 [NCGC00420854-01] | – | – | – | – | -33.164 | 5.8e-05 | 5.8e-05 | –
25 | C=Cc1cc2oc(-c3ccc(O)c(F)c3)nc2cc1O [NCGC00485115-01] | – | – | – | – | -24.649 | 6.51e-05 | 6.51e-05 | –
26 | COC(=O)C1=C(C)NC(C)=C(C(=O)OC)C1c1cccc(NC(=O)NCCCN2CCC(c3cccc(OC)c3)CC2)c1 [NCGC00485144-01] | – | – | – | – | -27.731 | 7.31e-05 | 7.31e-05 | –
27 | C[C@H]1CCC[C@H](O)CCC/C=C/c2cc(O)cc(O)c2C(=O)O1 [NCGC00485224-01] | – | – | – | -3 | -58.539 | 6.51e-05 | 6.51e-05 | –
28 | C[C@@]1(O)[C@H](O)[C@@H](CO)O[C@H]1n1cnc2c(=O)[nH]c(N)nc21 [NCGC00485409-01] | – | – | – | – | -27.977 | 3.66e-05 | 3.66e-05 | –
29 | O=C(O)c1ccc2c(c1)nc(Nc1cccc(Cl)c1)c1ccncc12 [NCGC00485907-01] | – | – | – | – | -41.903 | 6.51e-05 | 6.51e-05 | –
30 | C/C(=N\NC(=N)N)c1cc(NC(=O)CCCCCCCCC(=O)Nc2cc(/C(C)=N/NC(=N)N)cc(/C(C)=N/NC(=N)N)c2)cc(/C(C)=N/NC(=N)N)c1 [NCGC00487056-01] | – | – | – | -2.2 | -56.895 | 5.8e-05 | 5.8e-05 | –

From paper PMC8765781, “A platform of assays for the discovery of anti-Zika small-molecules with activity in a 3D-bioprinted outer-blood-retina model” (PLoS ONE, 2022)
